Measurements as given in patent US20210163424A1, “ECO-FRIENDLY MATERIALS AND METHODS FOR RENEWABLE AND SUSTAINABLE APPLICATIONS IN MATERIAL CHEMISTRY” (NDSU RESEARCH FOUNDATION, priority 2016, published 2021).

Tests used:
[1] = Ground state acidity (pKa) from α-plot of UV-Vis spectra at various pH; assay type: physicochemical
Experimental: (§1) Thus pKa* is most commonly calculated from the difference in the S1 excited state 0-0 transition of the acid (EHA) and the conjugate base (EA−)(2c). In order to determine the excited state acidity of the vanillin analogs, the ground state acidity was determined. An α-plot was made, by taking the UV-Vis spectra of ortho-vanillin at various pH using NaOH and HCl as the base and acid respectively (5c). Both iso-vanillin and vanillin ground state acidities were literature reported. After obtaining the ground state acidity the excited state acidity (pKa*) was investigated. Fluorescence, phosphorescence and luminescence spectra were measured in different solvents. It was determined that none of the vanillin analogs fluoresced appreciably and therefore were all poor photoacids. […] Various substituted Grignard reagents were used to reduce the carbonyl to a tertiary alcohol therefore eliminating the carbonyl functionality and hindering inter-system crossing (FIG. 32).
(§2) The ground state and excited state acidities were determined. […] Derivatives 1a and 1b were handled in a similar fashion.

[2] = Excited state acidity / photoacidity (pKa*) from Foster cycle; assay type: physicochemical
Description: Investigations commenced determining the extent or existence of excited state proton transfer, photoacidity (pKa*), of vanillin and its analogs ortho-vanillin and iso-vanillin. From the Foster cycle, pKa* is mathematically defined by the following equation,
=pKa*+pKa+(EA−−EHA)/2.3RT.^1 (1)
as §1, §2

Row | pKa [1] | pKa* [2] | Compound
1 | 9.8 | 9.6 | COc1cc(C(C)O)ccc1O (stereo not drawn) [1a]
2 | 9.8 | 5.6 | COc1ccc(C(C)O)cc1O (stereo not drawn) [1b]
3 | 8 | 4.9 | COc1cccc(C(C)O)c1O (stereo not drawn) [1c]
